In patent publication US20220339176A1, “Methods of Treatments to Prolong Gestation and Complications of Menstruation or Gestation” (priority 2019, published 2022):
“Also recorded” adds a separate entry of the source. Structures can show the parent of a compound that is named as a salt.

Experiments:
[1] = test system: uterine muscle strips from pregnant WT mice; assay: myography of uterine muscle strips, oxytocin dose-response; set-up: species or system mouse; conditions: D18 strips
Description: (§1) Uterine muscle strips were extracted from pregnant mice and were assessed for contractibility via myography. Timed-pregnant wild-type C57/B6 mice were euthanized before making a vertical midline abdominal incision and removing each of the two uterine horns. Uterine horns were subsequently cut into 3-mm×7-mm segments and placed in a modified Krebs buffer (118 mM NaCl, […], 1.2 mM MgSO4, 1.2 mM KH2PO4, 2.5 mM CaCl2), 25 mM NaHCO3, and 11 mM glucose, pH 7.4). Muscle segments were vertically suspended on custom-made stainless steel hooks inside an organ bath filled with modified Krebs buffer, maintained at 37° C., and aerated with gas containing 95% O2 and 5% CO2. The strips were allowed to equilibrate at 1.5 g of tension for 45 min.
For the oxytocin dose-response experiments, the strips were then stimulated with oxytocin at concentrations ranging from 1 to 1000 nM, and the pattern of contraction in response to each dose was recorded for 9 min. The muscle strips were washed with Krebs solution twice and allowed to equilibrate for 3 min before the next stimulation. In separate experiments, strips were treated with the compounds before assessing the dose response to oxytocin. Contraction tracings were recorded using PowerLab and LabChart (ADInstruments).
Provided in FIGS. 5B and 5C are results of a myography experiment measuring spontaneous contractions induced by oxytocin. Myography of uterine muscle strips from pregnant WT mice at D18 was performed while incubating the strips with increasing doses of oxytocin in the presence of 1 μM Androstane-3,17-diol (black squares) or vehicle (black circles), n=4 to 7. The results are provided as old increase in area under the curve AUC (FIG. 5B), and amplitude (FIG. 5C) from baseline spontaneous contractions with vehicle and Androstane-3,17-diol. […]

Pregnant C57BL/6 mice [2] = assay: mouse model of moderate preterm birth (2 mg/kg LPS); assay type: in vivo; conditions: for gestation in vivo: 2 mg/kg LPS on D15, compounds intraperitoneal every 8 hours beginning 8 hours after LPS
Description: Provided in FIGS. 6A and 6B are an experimental schematic and results of compound treatment in mouse models of moderate preterm birth. Pregnant C57BL/6 mice were intraperitoneally administered 2 mg/kg LPS (Escherichia coli 0127:B8, chromatographically pure, Sigma-Aldrich) or PBS (as control) on D15. Mice were then treated with either intraperitoneal injections of vehicle (100 μl, 30% DMSO in pharmaceutical sesame oil), DHEA-S(first two doses at 0.8 mg/mouse, later doses at 0.4 mg/mouse, 100 μl), THDOC (first two doses at 0.8 mg/mouse, later doses at 0.4 mg/mouse, 100 μl), estriol-16-glucuronide (first two doses at 0.8 mg/mouse, later doses at 0.4 mg/mouse, 100 μl), androstane-3,17-diol (1.5 mg/mouse, 100 μl), Androstane-3,17-diol+progesterone (each at 0.75 mg/mouse, 100 μl), or DHEA-S+androstane-3,17-diol+progesterone (androstane-3,17-diol and progesterone each at 0.75 mg/mouse, DHEA-S at 0.27 mg/mouse for the first two doses and then 0.13 mg/mouse for the later does, 100 μl). Compound groups received the compounds via intraperitoneal injections every 8 hours, beginning 8 hours after LPS administration, up to 4 doses, and then after 12 hours before delivery.

[3] = test system: uterine muscle strips from pregnant WT mice; assay: myography of uterine muscle strips, spontaneous contraction; set-up: species or system mouse
Description: as §1
Provided in FIG. 5A are results of a myography experiment measuring spontaneous contraction. Myography of uterine muscle strips from pregnant WT mice at D18 was performed while incubating the strips with oxytocin (OXY), Vehicle, 0.25 μM μM of DHEA-S, 1 μM of THDOC, 1 μM of estriol-16-glucuronide, or 1 μM of androstane-3,17-diol. The area under the curve was calculated for the final 180 s of each 9-min contraction tracing using GraphPad Prism (GraphPad Prism for Macintosh version 5.0; GraphPad Software). The area under the curve for each response was then normalized to the area under the curve of the baseline.
Provided in FIG. 5E are myography tracings recorded with various compound applications: 10 μM progesterone, 1 μM Androstane-3,17-diol, 0.5 μM Androstane-3,17-diol+5 μM progesterone, and 0.33 μM Androstane-3,17-diol+0.33 μM THDOC+3.3 μM progesterone. Left of the arrow is baseline contraction and to the right of the arrow indicates when the compounds were applied. […] Note that there was no obvious effect when treating the muscle with 1 μM progesterone (data not shown).

[4] = test system: human uterine smooth muscle cells; assay: collagen gel contraction assay; assay type: cell-based
Pregnant C57BL/6 mice [5] = assay: mouse model of severe preterm birth (3 mg/kg LPS); assay type: in vivo; conditions: 3 mg/kg LPS on D15
Description: Provided in FIG. 7 is an experimental schematic of compound treatment in mouse models of severe preterm birth. In separate experiments, pregnant C57BL/6 mice were intraperitoneally administered 3 mg/kg LPS (Escherichia coli 0127:B8, chromatographically pure, Sigma-Aldrich) or PBS (as control) on D15. Treated mice were then treated with either intraperitoneal injections of vehicle (200 μl, 15% DMSO in pharmaceutical sesame oil) or androstane-3,17-diol (1.5 mg/mouse, 200 μl) every 12 hours, up to 5 doses before delivery.
(§2) Provided in FIGS. 8A and 8B are an experimental schematic and results of tocolytic compound treatment in mouse models of severe preterm birth. In separate experiments, pregnant C57BL/6 mice were intraperitoneally administered 3 mg/kg LPS (Escherichia coli 0127:B8, chromatographically pure, Sigma-Aldrich) or PBS (as control) on D15. Treated mice were then treated with either intraperitoneal injections of vehicle or androstane-3,17-diol (1.5 mg/mouse). The androstane-3,17-diol group received […] via intraperitoneal injections every 24 hours, up to 3 days before delivery. One-third (33%) of LPS-induced preterm mice treated with androstane-3,17-diol reached full term.

Pregnant C57BL/6 mice [6] = assay: treatment of healthy control mice (no LPS administration); assay type: in vivo; conditions: 1.5 mg/mouse intraperitoneal every 24 hours
Description: as §2

[7] = 2 mg/kg LPS on D15, compounds intraperitoneal

## CC[C@H](C)[C@@H]1NC(=O)[C@H](Cc2ccc(O)cc2)NC(=O)[C@@H](N)CSSC[C@@H](C(=O)N2CCC[C@H]2C(=O)N[C@@H](CC(C)C)C(=O)NCC(N)=O)NC(=O)[C@H](CC(N)=O)NC(=O)[C@H](CCC(N)=O)NC1=O [Oxytocin, oxytocin, reference compound]
[1]; oxytocin 1 to 1000 nM, vehicle
  uterine contractility (AUC, amplitude): induced a dose-dependent increase in uterine contractility

## C[C@]12CC[C@H](OS(=O)(=O)O)CC1=CC[C@@H]1[C@@H]2CC[C@]2(C)C(=O)CC[C@@H]12 [DHEA-S, dehydroisoandrosterone sulfate]
Pregnant C57BL/6 mice [2]; [7]
  birth outcome of preterm model females: Full-term live pups were birthed
Pregnant C57BL/6 mice [2]
  gestation in vivo: prolonged gestation in vivo

## CC(=O)[C@H]1CC[C@H]2[C@@H]3CCC4=CC(=O)CC[C@]4(C)[C@H]3CC[C@]12C [progesterone, reference compound]
[3]; 1 μM progesterone
  muscle contractility in myography tracings: no effects
[3]; 10 μM progesterone
  muscle contractility in myography tracings: first enhanced and then gradually suppressed in peak height
[1]; increasing doses of oxytocin, 10 μM progesterone, n=3
  effect on uterine muscle contraction with oxytocin stimulation: but progesterone inhibits uterine muscle contraction
[4]; progesterone at the same concentration as androstane-3,17-diol (10 μM)
  ability to mitigate collagen retraction: no effect

## C[C@]12CC[C@@H](O)C[C@H]1CC[C@@H]1[C@@H]2CC[C@]2(C)[C@@H](C(=O)CO)CC[C@@H]12 [THDOC, tetrahydrodeoxycorticosterone]
Pregnant C57BL/6 mice [2]
  gestation in vivo: prolonged gestation in vivo

## C[C@]12CC[C@@H](O)C[C@@H]1CC[C@@H]1[C@@H]2CC[C@]2(C)[C@@H](O)CC[C@@H]12 (stereo in doubt) [androstane-3,17-diol]
[3]; 1 μM Androstane-3,17-diol
  muscle contractility in myography tracings: rapid inhibition of the muscle contraction
[3]; D18 strips, 0.25 μM DHEA-S, 1 μM THDOC, 1 μM estriol-16-glucuronide, 1 μM androstane-3,17-diol
  suppression of uterine contractility (area under the curve normalized to baseline): most significant inhibition effect
Pregnant C57BL/6 mice [5]; 1.5 mg/mouse intraperitoneal every 12 hours, up to 5 doses
  mice that reached full-term: 1/3
Pregnant C57BL/6 mice [5]; 1.5 mg/mouse intraperitoneal every 12 hours, the mouse that reached full-term
  appearance of mom and pups: both mom and pups looked healthy
Pregnant C57BL/6 mice [5]; 1.5 mg/mouse intraperitoneal every 24 hours, up to 3 days
  LPS-induced preterm mice that reached full term: 33%
Pregnant C57BL/6 mice [2]; [7]
  birth outcome of preterm model females: Full-term live pups were birthed
  comparison of gestation results between treatment groups: most significant results
Pregnant C57BL/6 mice [2]
  gestation in vivo: prolonged gestation in vivo
[1]; increasing doses of oxytocin, 1 μM Androstane-3,17-diol
  effect on oxytocin-induced uterine contractility (AUC and amplitude from baseline): reduced; also recorded: inhibits uterine muscle contraction with oxytocin stimulation
[4]; oxytocin 100 nM, 18 hours, 2.5 μM DHEA-S, 10 μM THDOC, 10 μM estriol-16-glucuronide, 10 μM androstane-3,17-diol, 2 mM progesterone
  ability to mitigate collagen retraction (gel surface area relative to no cell control): provided the best results
Pregnant C57BL/6 mice [6]
  gestation period: increased gestation period beyond the typical date of delivery
